In paper doi:10.1101/2020.05.01.070730v2 (biorxiv, 2021):

Target: MutS (Pseudomonas aeruginosa, UniProt Q9HY08)
Assay: biochemical

MutS, sequence (Q9HY08 whole entry): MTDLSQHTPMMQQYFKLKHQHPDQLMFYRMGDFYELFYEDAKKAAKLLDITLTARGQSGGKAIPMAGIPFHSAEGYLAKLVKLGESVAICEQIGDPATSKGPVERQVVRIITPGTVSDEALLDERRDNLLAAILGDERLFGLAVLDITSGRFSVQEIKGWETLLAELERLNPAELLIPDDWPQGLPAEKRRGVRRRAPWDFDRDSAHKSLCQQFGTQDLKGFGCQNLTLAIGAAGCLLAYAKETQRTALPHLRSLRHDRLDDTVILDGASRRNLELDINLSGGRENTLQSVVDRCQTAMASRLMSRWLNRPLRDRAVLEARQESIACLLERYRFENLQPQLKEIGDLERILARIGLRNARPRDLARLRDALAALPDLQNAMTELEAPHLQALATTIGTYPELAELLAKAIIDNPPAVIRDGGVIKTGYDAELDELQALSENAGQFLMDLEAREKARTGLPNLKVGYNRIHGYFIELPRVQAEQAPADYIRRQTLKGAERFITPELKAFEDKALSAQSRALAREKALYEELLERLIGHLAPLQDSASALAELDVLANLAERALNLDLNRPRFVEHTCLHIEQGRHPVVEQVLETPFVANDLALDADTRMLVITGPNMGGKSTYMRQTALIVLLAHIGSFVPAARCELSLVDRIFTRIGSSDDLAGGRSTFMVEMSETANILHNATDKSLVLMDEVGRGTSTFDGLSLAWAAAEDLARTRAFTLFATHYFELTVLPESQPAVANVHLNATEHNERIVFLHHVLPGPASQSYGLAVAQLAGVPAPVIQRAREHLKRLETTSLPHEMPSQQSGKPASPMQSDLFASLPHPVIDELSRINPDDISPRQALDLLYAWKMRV

Compound `Nc1ncnc2c1ncn2[C@@H]1O[C@H](COP(=O)(O)OP(=O)(O)OP(=O)(O)O)[C@@H](O)[C@H]1O` [ATP] has an EC50 of 618 ± 49 µM.
